“Also recorded” adds a separate entry of the source.
What was measured:
colorectal cancer cells = experiment: Cell growth inhibition (Cell-titer Glo, ATP); assay type: cell-based; settings: 24, 48, and 72 hours of drug treatment; normalized to DMSO control
Protocol: Tumor cells were treated with titrations of irinotecan, oxaliplatin, or vehicle control and monitored for growth after 24, 48, and 72 hours of drug treatment. Cell growth was indirectly determined using a commercially available reagent (Promega, Cell-titer Glo®) which measures intracellular adenosine triphosphate (ATP) levels and directly correlates to the number of live cells. […] DMSO=dimethyl sulfoxide; Oxa=oxaliplatin; SN-38=irinotecan.

LS 174T cells = experiment: Flow cytometry of prophagocytic receptors (CALR, PS) after 24 hours of drug; assay type: cell-based; settings: 24 hours incubation; CALR and PS staining
Protocol: (§1) A. LS 174T cells were incubated with titrations of irinotecan for 24 hours, washed, and stained for CALR and PS. Flow cytometry was used to analyze and quantify the frequency of stained cells. The shaded areas indicate reported IC50 for each drug. B. LS-174T or HCT-116 cells were pretreated for 24 hours with irinotecan or oxaliplatin at the indicated concentration. The tumor cells were washed, CFSE labeled and cocultured with monocyte-derived macrophages at a 2:1 target to effector ratio for 2 hours. The phagocytic index, defined as the percentage of the macrophages that engulfed tumor cells out of total macrophages, was quantified using flow cytometry. 5F9, Magro=magrolimab; CALR=calreticulin; CFSE=carboxyfluorescein succinimidyl ester; hr=hour; IC50=half-maximal inhibitory concentration; MFI=median fluorescence intensity; PBS=phosphate buffered saline; PS=phosphatidyl serine; SN 38=irinotecan.

LS-174T or HCT-116 cells = experiment: In vitro phagocytosis of pretreated tumor cells by monocyte-derived macrophages; assay type: cell-based; settings: 24 hours pretreatment; 2:1 target to effector ratio, 2 hours coculture
Protocol: as §1

mCRC = settings: cited from earlier work
[1] = with 1 mg/kg priming dose, then repeated therapeutic doses; cited from earlier work
[2] = Clinical safety of magrolimab; settings: human, in vivo
Protocol: In the first-in-human study of magrolimab in patients with solid tumors and lymphomas, after an initial priming dose of 1 mg/kg on the first day, magrolimab was tested as a monotherapy at weekly doses of up to 45 mg/kg. The use of an initial 1 mg/kg priming dose was integrated into the dosing regimen to mitigate the on-target anemia induced by CD47 blockade. An initial priming dose leads to elimination of aged RBCs that are sensitive to CD47 blockade and triggers reticulocytosis of young RBCs that are not affected by CD47 blockade (Chen, et al., Blood (ASH Annual Meeting Abstracts) (2018) 132 (Suppl 1):2327). […] Based on PK-PD modeling, a maintenance dose of 30 mg/kg every 2 weeks is expected to provide more than 90% occupancy of the CD47 receptor in peripheral blood and tumor tissues and thus is expected to provide maximal efficacy while maintaining adequate safety. In solid tumors where the combination therapy is given according to 3-week cycles, dosing of magrolimab every 3 weeks optimizes patient and caregiver convenience. […]
Up to 6 other patients will then be enrolled and evaluated at a lower dose level in the same manner. • Once the RP2D is determined, the sponsor will open the Randomized Cohort.

[3] = continuation on bevacizumab versus standard chemotherapy alone

## CCc1c2c(nc3ccc(OC(=O)N4CCC(N5CCCCC5)CC4)cc13)-c1cc3c(c(=O)n1C2)COC(=O)[C@]3(O)CC [irinotecan]
Colorectal cancer cells
  growth inhibition: growth inhibition; also recorded: more likely to undergo growth inhibition
LS 174T cells
  cell surface expression of prophagocytic receptors: upregulates the expression of prophagocytic receptors; also recorded: more effective than oxaliplatin
LS-174T or HCT-116 cells
  phagocytosis of colorectal cancer cells: promotes the in vitro phagocytosis of colorectal cancer cells; also recorded: more effective than oxaliplatin

## O=C1[O][Pt]2([NH][C@@H]3CCCC[C@H]3[NH]2)[O]C1=O [oxaliplatin]
Colorectal cancer cells
  growth inhibition: growth inhibition

## bevacizumab: humanized monoclonal antibody targeting circulatory VEGF and preventing tumor angiogenesis
mCRC; continuation on bevacizumab after progression on first-line chemotherapy, standard chemotherapy alone 4.1 months
  PFS: 5.7 months
mCRC; continuation on bevacizumab after progression on first-line chemotherapy, standard chemotherapy alone 9.9 months
  OS: 11.2 months
mCRC; [3]
  OS HR: 0.81
  PFS HR: 0.68

## magrolimab: humanized anti-CD47 mAb (human IgG4) that blocks the interaction of CD47 with its receptor and enables phagocytosis of human cancer cells
[1]
  anemia: initial, transient, and mild anemia that generally normalizes back to baseline over several weeks
[2]
  dose-dependent toxicities: no dose-dependent toxicities have been observed

Source: patent US20230365682A1, “COMBINATION THERAPY FOR TREATING COLORECTAL CANCER” (Gilead Sciences, Inc., priority 2022, published 2023)
